Source: patent publication US10174013B2, “Benzimidazole derivatives as kinase inhibitors” (SELVITA S.A., priority 2012, dated 2019)
Structures can show the parent of a compound that is named as a salt. Where two headings read alike, the source gives them in different places.

Experiments:
HEL92 cells = assay: Growth inhibition, MTS assay, HEL92; format: cell-based, Human; settings: MTS cell viability, read-out: HEL92 ED50
HepG2 cells = assay: Growth inhibition, MTS assay, HepG2; format: cell-based, Human; settings: MTS cell viability, read-out: HepG2 ED50
MV4-11 cells = assay: Growth inhibition, MTS assay, MV4-11; format: cell-based, Human; settings: MTS cell viability, read-out: MV4-11 ED50
Jeko-1 cells = assay: Growth inhibition, MTS assay, Jeko-1; format: cell-based, Human; settings: 72 hours, MTS cell viability, read-out: Jeko-1 ED50
Source text: The following cell lines, were obtained and used in tests as outlined below: • Human myelomonocytic, biphenotypic leukemia MV4-11 cells (harboring a Flt3-ITD mutation); • Human Acute Myeloid Leukemia MOLM16 cells; • Human Acute Myeloid Leukemia MOLM13 cells (harboring a Flt3-ITD mutation); • Human Myeloid Leukemia KG-1 cells; • Human erythroleukemia HEL92 cells; • Human mantle cell lymphoma Jeko-1 cells; • Human hepatocellular carcinoma HepG2 cells; and • Human colon adenocarcinoma SW-480 cells.
The assays were carried out according to the following protocol, which is described as an example for the MV4-11 cells:
Ten thousand MV4-11 cells were inoculated into each well of a 96-well microplate (manufactured by Corning Corp.) using Iscove's MDM medium (culture medium) containing 10% fetal calf serum (FCS). The same day, a dimethyl sulfoxide (DMSO) solution of each test compound prepared in a concentration of 10 mmol/L was further diluted with DMSO to the desired concentrations (0.1, 0.5, 1, 2.5, 5 and 10 micromol/L), and the diluted solution was added to each well. The individual wells were further cultured in 5% carbon dioxide at 37° C. for 72 hours. […] Briefly, 10 μl MTS (3-(4,5-Dimethyl-2-thiazolyl)-5-(carboxymethoxyphenyl)-2-(4-sulfophenyl)-2H-tetrazolium was added to each well, and culturing was performed in 5% carbon dioxide at 37° C. for 2 hours. After this incubation and using a microplate spectrophotometer (Synergy 2 multi-mode microplate reader (BioTek)), the absorbance of each well was measured at 490 nm. The value for cells not incubated with a test compound was designated as 100%. By comparing these values with the absorbance difference obtained at the well in which each test compound was added, the cell viability (% viability) after treatment with the test compound was calculated.

hERG potassium channel = hERG potassium channel (Homo sapiens (Human), UniProt Q12809); assay: hERG automated patch clamp assay (QPatch HT)
Sequence of hERG potassium channel (Q12809 whole entry): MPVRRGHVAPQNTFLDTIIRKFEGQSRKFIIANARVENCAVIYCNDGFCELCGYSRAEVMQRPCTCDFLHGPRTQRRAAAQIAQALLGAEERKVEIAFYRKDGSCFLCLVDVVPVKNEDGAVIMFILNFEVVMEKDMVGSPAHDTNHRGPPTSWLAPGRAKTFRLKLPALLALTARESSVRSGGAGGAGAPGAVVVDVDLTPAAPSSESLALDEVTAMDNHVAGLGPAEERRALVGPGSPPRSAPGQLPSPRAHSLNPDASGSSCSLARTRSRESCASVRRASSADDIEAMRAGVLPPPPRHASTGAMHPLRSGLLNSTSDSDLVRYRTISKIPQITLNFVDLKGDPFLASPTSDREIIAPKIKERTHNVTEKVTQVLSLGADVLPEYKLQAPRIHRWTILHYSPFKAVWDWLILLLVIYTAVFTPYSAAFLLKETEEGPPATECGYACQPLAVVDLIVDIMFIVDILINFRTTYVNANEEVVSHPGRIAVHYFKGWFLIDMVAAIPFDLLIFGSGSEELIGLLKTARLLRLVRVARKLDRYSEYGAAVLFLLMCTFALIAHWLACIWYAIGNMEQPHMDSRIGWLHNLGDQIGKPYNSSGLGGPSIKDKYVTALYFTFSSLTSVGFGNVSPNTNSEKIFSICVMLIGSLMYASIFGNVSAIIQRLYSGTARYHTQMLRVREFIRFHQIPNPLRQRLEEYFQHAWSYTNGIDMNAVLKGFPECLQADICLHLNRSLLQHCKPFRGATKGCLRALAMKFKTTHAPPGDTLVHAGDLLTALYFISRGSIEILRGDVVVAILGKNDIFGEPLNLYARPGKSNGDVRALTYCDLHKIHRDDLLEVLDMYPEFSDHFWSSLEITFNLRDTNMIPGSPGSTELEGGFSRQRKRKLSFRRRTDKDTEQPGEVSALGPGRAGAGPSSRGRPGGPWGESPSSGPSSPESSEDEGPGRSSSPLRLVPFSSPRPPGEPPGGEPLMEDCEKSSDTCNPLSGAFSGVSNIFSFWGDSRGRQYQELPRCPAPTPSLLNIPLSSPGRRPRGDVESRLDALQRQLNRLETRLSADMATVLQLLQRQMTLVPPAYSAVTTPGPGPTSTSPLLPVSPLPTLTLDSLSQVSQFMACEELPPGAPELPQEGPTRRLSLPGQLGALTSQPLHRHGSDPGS
Method: The hERG (human ether-A-go-go-related gene) channel corresponds to an important anti-target for potential new drugs since its inhibition may lead to sudden death. In order to establish whether the compounds of the present invention act on hERG, the following experiment was carried out.
The in vitro effects of the compounds indicated in Table 5 on the hERG potassium channel current (a surrogate for Iκr, the rapidly activating, delayed rectifier cardiac potassium current) expressed in mammalian cells were evaluated at room temperature using the QPatch HT® (Sophion Bioscience A/S, Denmark), an automatic parallel patch clamp system. Each compound indicated in Table 5 was evaluated at 0.1, 1, 3, 10 and 30 μM with each concentration tested in a minimum of two cells (n≥2). The duration of exposure to each compound concentration was 3 minutes.

CDK2/E = CDK2/E (Homo sapiens (Human), UniProt P24941); assay: ADP-Glo Kinase Assay, CDK2/E; format: biochemical; settings: 1 μM compound; for inhibition at 1 µM: read-out: CDK2/E % INH (1 μM)
In short: (§1)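 Buffer was MOPS 5 mM (pH 7.5) with MgCl2, EDTA and DTT; ATP set at apparent Km per kinase. Compounds were diluted in assay buffer to 1000 nM. Kinase-generated ADP was converted to luciferase signal and normalised to percent inhibition.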

FLT3wt = FLT3wt (Homo sapiens (Human), UniProt P36888); assay: ADP-Glo Kinase Assay, Flt3 wt; format: biochemical; settings: 1 μM compound; for inhibition at 1 µM: read-out: Flt3wt % INH (1 μM)
Sequence of FLT3wt (P36888 27-993): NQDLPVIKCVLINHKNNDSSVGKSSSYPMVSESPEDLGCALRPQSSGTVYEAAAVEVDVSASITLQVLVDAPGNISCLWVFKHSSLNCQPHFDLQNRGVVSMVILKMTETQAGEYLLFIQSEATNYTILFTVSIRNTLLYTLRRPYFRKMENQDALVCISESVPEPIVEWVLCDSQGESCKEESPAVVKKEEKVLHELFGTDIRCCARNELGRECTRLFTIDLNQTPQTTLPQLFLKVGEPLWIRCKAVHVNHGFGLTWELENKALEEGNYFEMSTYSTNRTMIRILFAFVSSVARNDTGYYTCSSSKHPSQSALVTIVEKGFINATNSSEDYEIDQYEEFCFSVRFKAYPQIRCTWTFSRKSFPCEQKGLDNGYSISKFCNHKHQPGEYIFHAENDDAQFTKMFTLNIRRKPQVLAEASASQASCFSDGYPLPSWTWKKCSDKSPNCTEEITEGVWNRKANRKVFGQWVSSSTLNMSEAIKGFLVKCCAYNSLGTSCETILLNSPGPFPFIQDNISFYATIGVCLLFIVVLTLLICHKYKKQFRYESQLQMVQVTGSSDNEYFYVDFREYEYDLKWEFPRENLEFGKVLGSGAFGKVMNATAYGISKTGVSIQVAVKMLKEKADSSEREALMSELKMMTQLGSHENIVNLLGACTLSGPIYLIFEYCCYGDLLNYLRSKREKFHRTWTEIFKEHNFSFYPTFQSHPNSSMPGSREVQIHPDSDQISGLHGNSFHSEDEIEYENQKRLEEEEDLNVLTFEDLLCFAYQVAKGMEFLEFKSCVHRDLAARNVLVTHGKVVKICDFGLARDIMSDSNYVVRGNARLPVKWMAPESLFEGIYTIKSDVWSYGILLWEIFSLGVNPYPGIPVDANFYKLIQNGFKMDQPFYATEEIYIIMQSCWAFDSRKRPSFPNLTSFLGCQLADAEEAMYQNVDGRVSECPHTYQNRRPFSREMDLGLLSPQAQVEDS
In short: as §1

Pim-1 = Pim-1 (Homo sapiens (Human), UniProt P11309); assay: ADP-Glo Kinase Assay, Pim-1; format: biochemical; settings: 1 μM compound; for inhibition at 1 µM: read-out: Pim-1 % INH (1 μM)
Sequence of Pim-1 (P11309 whole entry): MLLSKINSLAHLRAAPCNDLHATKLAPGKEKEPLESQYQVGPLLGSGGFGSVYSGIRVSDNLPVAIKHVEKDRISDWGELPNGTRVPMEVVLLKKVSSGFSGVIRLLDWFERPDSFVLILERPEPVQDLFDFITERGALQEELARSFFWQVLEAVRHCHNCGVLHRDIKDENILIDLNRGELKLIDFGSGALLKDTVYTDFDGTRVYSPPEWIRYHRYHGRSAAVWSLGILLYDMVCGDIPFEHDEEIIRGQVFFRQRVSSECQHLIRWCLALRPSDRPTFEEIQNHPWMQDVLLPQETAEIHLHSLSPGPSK
In short: as §1

SW-480 cells = assay: Growth inhibition, MTS assay, SW-480; format: cell-based, Human; settings: 72 hours, MTS cell viability, read-out: SW-480 ED50
Pim-3 = Pim-3 (Homo sapiens (Human), UniProt Q86V86); assay: ADP-Glo Kinase Assay, Pim-3; format: biochemical; settings: 1 μM compound; for inhibition at 1 µM: read-out: Pim-3 % INH (1 μM)
In short: as §1

DYRK1 = DYRK1 (Homo sapiens (Human), UniProt Q13627); assay: ADP-Glo Kinase Assay, DYRK1; format: biochemical; settings: 1 μM compound; for inhibition at 1 µM: read-out: DYRK1A % INH (1 μM)
In short: as §1

Pim-2 = Pim-2 (Homo sapiens (Human), UniProt Q9P1W9); assay: ADP-Glo Kinase Assay, Pim-2; format: biochemical; settings: 1 μM compound; for inhibition at 1 µM: read-out: Pim-2 % INH (1 μM)
Sequence of Pim-2 (Q9P1W9 whole entry): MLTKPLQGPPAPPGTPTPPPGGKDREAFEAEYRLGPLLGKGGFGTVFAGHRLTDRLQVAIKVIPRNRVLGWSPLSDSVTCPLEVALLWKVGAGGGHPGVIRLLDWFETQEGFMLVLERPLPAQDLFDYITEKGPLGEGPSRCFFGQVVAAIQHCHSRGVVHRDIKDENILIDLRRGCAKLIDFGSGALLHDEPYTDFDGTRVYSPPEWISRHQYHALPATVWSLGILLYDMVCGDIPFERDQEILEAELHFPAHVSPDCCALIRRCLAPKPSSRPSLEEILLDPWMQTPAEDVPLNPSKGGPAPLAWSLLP
In short: as §1

MV4-11 xenograft = MV4-11 xenograft in immunocompromised mice; format: in vivo; settings: MV4-11 xenograft, oral
Source text: Several compounds of the present invention have been studied in a xenograft in mice, an in vivo tumor transplantation model used to investigate the factors involved in malignant transformation, invasion and metastasis, as well as to examine response to therapy. For the purpose of acceptance of donor leukemic cells (MV4-11 or MOLM16 cells), immunocompromised mice were used, namely particularly severely compromised immunodeficient mice (NOD/scid, SCID/beige). When tumors developed size of approx. 50-200 mm^3, the compounds as indicated below in Tables 3 and 3a were administered orally every day for 2-3 weeks, in once a day (QD) or twice a day (BID) schedule. During the course of the experiment, the mice were monitored and the following two parameters were measured: the tumor growth inhibition (TGI) factor as a measure of therapeutic efficacy and the body weight change (ΔBW) factor as a measure of possible compound toxicity. The results are depicted in Tables 3 and 3a.
Next, compound 26A was evaluated in a xenograft study of acute myeloid leukemia (MV-4-11), alone or in a combinational treatment with Cytarabine in vivo (Table 3b; FIG. 6). Compound 26A was tested in two doses (50 and 25 mg/kg) and administered twice a day (BID); Cytarabine was administered at dose of 50 mg/kg three times in a week (TIW). During 15 days of compound administration dose-dependent anti-cancer activity of compound 26A (administered alone) was shown. Tumor growth inhibition reached −82% and −77%, respectively.

Row | SMILES | IC50 (HEL92 cells; 72 hours) | IC50 (HepG2 cells; 72 hours) | IC50 (MV4-11 cells; 72 hours) | IC50 (hERG potassium channel) | inhibition at 1 µM (CDK2/E) | inhibition at 1 µM (FLT3wt) | inhibition at 1 µM (Pim-1) | inhibition at 1 µM (Pim-3) | IC50 (MV4-11 cells; Homo sapiens, MV4-11, 72 h) | IC50 (Jeko-1 cells; Homo sapiens, JeKo-1) | inhibition at 1 µM (Pim-2) | IC50 (HEL92 cells; Homo sapiens, 72 h) | IC50 (HepG2 cells; Homo sapiens, HepG2, 72 h) | IC50 (SW-480 cells; Homo sapiens, SW480) | inhibition at 1 µM (DYRK1) | also measured
1 | CC(C)n1c(N[C@@H]2CCCNC2)nc2c([N+](=O)[O-])c(Br)c(Br)cc21 [Example 1AS] | 5.4 µM | 1.4 µM | 0.6 µM | 5.77 µM | – | – | – | – | – | – | – | – | – | – | – | IC50 (Jeko-1 cells): 1.1 µM
2 | CCCn1c(NCCCN)nc2c([N+](=O)[O-])c(Br)c(Br)cc21 [Example 1P] | 7.0 µM | 1.5 µM | 1.4 µM | 1.88 µM | – | – | – | – | – | – | – | – | – | – | – | CDK2/E % INH (1 μM) (CDK2/E): <5%; Flt3wt % INH (1 μM) (FLT3wt): 37%; Pim-1 % INH (1 μM) (Pim-1): >95%; IC50 (SW-480 cells): 2.9 µM; Pim-3 % INH (1 μM) (Pim-3): 77%; DYRK1A % INH (1 μM) (DYRK1): 23%; Pim-2 % INH (1 μM) (Pim-2): 36%
3 | CC(C)Cn1c(NCC(O)CN)nc2c([N+](=O)[O-])c(Br)c(Br)cc21 (stereo not drawn) [Example 1Y] | – | – | – | 16.9 µM | 6% | < 5% | > 95% | 86% | 1.4 µM | 3.4 µM | 25% | – | – | – | – | –
4 | CCn1c(NCCN)nc2c([N+](=O)[O-])c(Br)c(Br)cc21 [Example 1AL] | 5.3 µM | 1.4 µM | 2.2 µM | 2.42 µM | – | – | – | – | – | – | – | – | – | – | – | CDK2/E % INH (1 μM) (CDK2/E): <5%; Flt3wt % INH (1 μM) (FLT3wt): <5%; Pim-1 % INH (1 μM) (Pim-1): >95%; IC50 (SW-480 cells): 5.3 µM; Pim-3 % INH (1 μM) (Pim-3): >95%; DYRK1A % INH (1 μM) (DYRK1): 49%; IC50 (Jeko-1 cells): 2.3 µM; Pim-2 % INH (1 μM) (Pim-2): 42%
5 | CC(C)Cn1c(N2CCNCC2)nc2c([N+](=O)[O-])c(Br)c(Br)cc21 [Example 1N] | – | – | – | – | 39% | 55% | > 95% | > 95% | 0.6 µM | – | 69% | 1.4 µM | 1.7 µM | 1.2 µM | > 95% | TGI (tumor growth inhibition) (MV4-11 xenograft; 150 mg/Kg QD): 52%; ΔBW (body weight change) (MV4-11 xenograft; 150 mg/Kg QD): −6.5%; TGI (tumor growth inhibition) (MV4-11 xenograft; doses as in Table 3): up to 70%; IC50 (hERG potassium channel; human, 3 min): 1.28 µM
6 | CCn1c(NCC2CCCN2)nc2c([N+](=O)[O-])c(Br)c(Br)cc21 (stereo not drawn) [Example 1AM] | – | – | – | – | 12% | < 5% | 85% | 53% | 2.6 µM | 2.8 µM | – | 8 µM | 2.7 µM | – | – | IC50 (hERG potassium channel; human, 3 min): 1.46 µM
7 | CCn1c(N2CCN(CCCN3CCNCC3)CC2)nc2c([N+](=O)[O-])c(Br)c(Br)cc21 [Example 22R, 5,6-dibromo-1-ethyl-4-nitro-2-{4{3-(piperazin-1-yl)propyl]piperazin-1-yl}-1H-1,3-benzodiazole] | – | – | – | 1.78 µM | – | – | – | – | 1.1 µM | – | – | 2.9 µM | 1.2 µM | 0.5 µM | – | –
8 | O=[N+]([O-])c1c(Br)c(Br)cc2c1nc(N1CCNCC1)n2CCN1CCNCC1 [Example 2C, 5,6-dibromo-4-nitro-2-(piperazin-1-yl)-1-[2-(piperazin-1-yl)ethyl]-1H-1,3-benzodiazole hydrochloride] | – | – | – | 2.5 µM | – | – | – | – | 2.8 µM | 6.2 µM | – | – | 7 µM | – | – | –
9 | CC(C)n1c(N2CCC[C@H](N)C2)nc2c([N+](=O)[O-])c(Br)c(Br)cc21 [Example 1AP] | 2.4 µM | 0.9 µM | 0.3 µM | 1.82 µM | – | – | – | – | – | – | – | – | – | – | – | CDK2/E % INH (1 μM) (CDK2/E): 13%; Flt3wt % INH (1 μM) (FLT3wt): 56%; Pim-1 % INH (1 μM) (Pim-1): >95%; IC50 (SW-480 cells): 2.4 µM; Pim-3 % INH (1 μM) (Pim-3): 93%; DYRK1A % INH (1 μM) (DYRK1): 70%; IC50 (Jeko-1 cells): 1.3 µM; TGI (tumor growth inhibition) (MV4-11 xenograft; 150 mg/Kg QD): 99%; ΔBW (body weight change) (MV4-11 xenograft; 150 mg/Kg QD): 11.7%; TGI (tumor growth inhibition) (MV4-11 xenograft; doses as in Table 3): exceeding 97%; Pim-2 % INH (1 μM) (Pim-2): 80%
10 | CCn1c(N2CCNCC2)nc2c(C#N)c(Br)c(Br)cc21 [Example 8A, 5,6-dibromo-1-ethyl-2-(piperazin-1-yl)-1H-1,3-benzodiazole-4-carbonitrilehydrochloride] | – | – | – | 0.77 µM | < 5% | 11% | 82% | 92% | 1.3 µM | 1.4 µM | 14% | 4.8 µM | 1.7 µM | 4.7 µM | 46% | –
11 | CCCn1c(NCC(O)CN)nc2c([N+](=O)[O-])c(Br)c(Br)cc21 (stereo not drawn) [Example 1X] | – | – | – | 20.4 µM | 17% | < 5% | > 95% | > 95% | 1.2 µM | 4.3 µM | 36% | – | – | – | 16% | –
12 | CCn1c(NC2CCCCC2N)nc2c([N+](=O)[O-])c(Br)c(Br)cc21 (stereo not drawn) [Example 22L, 1-N-(5,6-dibromo-1-ethyl-4-nitro-1H-1,3-benzodiazol-2-yl)cyclohexane-1,2-diamine] | – | – | – | 0.85 µM | < 5% | < 5% | 80% | > 95% | 1.9 µM | – | – | 3.2 µM | 1.3 µM | 1.2 µM | 17% | –
13 | CCn1c(N2CCNCC2C)nc2c([N+](=O)[O-])c(Br)c(Br)cc21 (stereo not drawn) [Example 1AD] | – | – | – | 1.42 µM | 26% | 18% | > 95% | > 95% | 0.5 µM | 0.4 µM | 52% | 0.5 µM | 0.6 µM | 0.7 µM | 72% | –
